This is an account of results in ChEMBL document CHEMBL1142587, “Rhizochalin A, a novel two-headed sphingolipid from the sponge Rhizochalina incrustata” (J Nat Prod, 2005).

SMILES strings stand for the structures. Values after ≈ are worked out from the molar mass of the structure shown.

In this experiment the test system is Ehrlich. In words: Cytotoxicity against mouse Ehrlich cells. It is filed as functional, cell-based.

The molecule `C[C@@H](N)[C@H](O)CCCCCCCC(=O)CCCCCCCCCCCCCC[C@@H](O[C@@H]1O[C@H](CO)[C@H](O)[C@H](O)[C@H]1O)[C@@H](C)N` [RHIZOCHALIN] yielded an IC50 of 10 µg/mL (≈ 15.8 µM).
